From PMC3700763, “First human dose-escalation study with remogliflozin etabonate, a selective inhibitor of the sodium-glucose transporter 2 (SGLT2), in healthy subjects and in subjects with type 2 diabetes mellitus” (BMC Pharmacology & Toxicology, 2013)
Like-named read-outs stand apart in the source and are kept apart here. Marks after values point to notes of the source that are not given here.

Legend:
[1] = Plasma pharmacokinetics, T2DM subjects; assay type: in vivo, human; conditions: human, plasma analyte; for AUC(0-inf): read-out: AUC(0–∞) Geometric mean (CV%); for Cmax: read-out: Cmax Geometric mean (CV%); for Tmax: read-out: Tmax Median; for half-life: read-out: T½ Geometric mean (CV%) (converted)
Procedure: Six subjects with T2DM received two doses of remogliflozin etabonate and a placebo dose, in a randomized, dose escalating, crossover design, along with an oral glucose load on three study sessions separated by 7–14 days. Full PK and safety profiles were measured on Day 1 of each dosing period. The doses selected for this portion of the study, 50 mg and 500 mg, were based on data obtained in Part A. In each dosing period, subjects were assigned to active vs placebo in a 2:1 ratio. On each dosing day, a series of 2.0 mL blood samples were collected at pre-dose and 10, 20, 30 and 45 min, and 1, 1.25, 1.5, 2, 2.5, 3, 4, 6, 8, 12, 16, and 24 h post-dose for the determination of remogliflozin etabonate, remogliflozin and GSK279782 in plasma by using high-performance liquid chromatography with tandem mass spectrometry (MS/MS) as described. Non-compartmental PK analysis of plasma concentration–time data was performed using WinNonlin Version 4.1 (Pharsight Corporation, Mountainview, CA, USA). The Cmax and Tmax were obtained directly from the data. Areas under the plasma concentration–time curves from time zero to the last quantifiable time point (AUC[0–last]) and extrapolated to infinity (AUC[0–∞]) were calculated using the log-linear trapezoidal method. The terminal plasma elimination rate-constant (λz) was estimated from log-linear regression analysis of the terminal phase of the plasma concentration–time curve, and the T½ was calculated as T½ = ln2/λz. Ratios of AUC(0–∞) remogliflozin to AUC(0–last) remogliflozin etabonate were calculated including molecular weight corrections.

[2] = rats; cited from earlier work
[3] = Fluid balance, healthy subjects; assay type: in vivo, human; conditions: mean (SD)
Procedure: (§1) Urine samples were collected at pre-dose, and over a series of intervals (0–2, 2–4, 4–6, 6–8, 8–12 and 12–24 h post-dose) for the analysis of creatinine, glucose and electrolytes (Na, K and Cl). All fluid intake was recorded, as well as urine volume, over the 24 hours before and after dosing in each treatment period. Urine was tested for protein on the first morning void of day -1 and 24 h after dosing.

[4] = 24-h urine electrolyte excretion, healthy subjects; assay type: in vivo, human; conditions: for Urinary chloride excretion / Urinary potassium excretion / Urinary sodium excretion: 24-h, healthy subjects, mean (SD)
Procedure: as §1

[5] = remogliflozin etabonate 50 mg oral dose
[6] = remogliflozin etabonate 500 mg oral dose (prodrug n = 2)
[7] = remogliflozin etabonate 500 mg oral dose

SMILES: CCOC(=O)OC[C@H]1O[C@@H](Oc2nn(C(C)C)c(C)c2Cc2ccc(OC(C)C)cc2)[C@H](O)[C@@H](O)[C@@H]1O [Remogliflozin etabonate, remogliflozin etabonate]
- AUC(0-inf) [1, 5]: 8.91 ng·h/mL
- Cmax [1, 5]: 9.56 ng/mL
- Tmax [1, 5]: 34.8 min
- half-life [1, 5]: 36.6 min
- AUC(0-inf) [1, 6]: 91.9 ng·h/mL
- half-life [1, 6]: 49.2 min
- Cmax [1, 7]: 83.9 ng/mL
- Tmax [1, 7]: 45 min
- Urinary glucose excretion [2]: concentration-dependent increase
- Fluid balance (total fluid intake minus total urine volume) ([3]; 0–12 h post-dose, 20 mg): 243 (1161) mL
- Fluid balance (total fluid intake minus total urine volume) ([3]; 0–12 h post-dose, 50 mg): -570 (582) mL
- Fluid balance (total fluid intake minus total urine volume) ([3]; 0–12 h post-dose, 150 mg): -86 (909) mL
- Fluid balance (total fluid intake minus total urine volume) ([3]; 0–12 h post-dose, 500 mg): -159 (531) mL
- Fluid balance (total fluid intake minus total urine volume) ([3]; 0–12 h post-dose, 1000 mg): -273 (331) mL
- Fluid balance (total fluid intake minus total urine volume) ([3]; 12–24 h post-dose, 20 mg): -581 (387) mL
- Fluid balance (total fluid intake minus total urine volume) ([3]; 12–24 h post-dose, 50 mg): -551 (530) mL
- Fluid balance (total fluid intake minus total urine volume) ([3]; 12–24 h post-dose, 150 mg): -564 (478) mL
- Fluid balance (total fluid intake minus total urine volume) ([3]; 12–24 h post-dose, 500 mg): -424 (334) mL
- Fluid balance (total fluid intake minus total urine volume) ([3]; 12–24 h post-dose, 1000 mg): -495(367) mL
- Fluid balance (total fluid intake minus total urine volume) ([3]; -24 h to pre-dose (baseline before dosing), 20 mg period): -460 (1311) mL
- Fluid balance (total fluid intake minus total urine volume) ([3]; -24 h to pre-dose (baseline before dosing), 50 mg period): -338 (525) mL
- Fluid balance (total fluid intake minus total urine volume) ([3]; -24 h to pre-dose (baseline before dosing), 150 mg period): -512 (731) mL
- Fluid balance (total fluid intake minus total urine volume) ([3]; -24 h to pre-dose (baseline before dosing), 500 mg period): -278 (1250) mL
- Fluid balance (total fluid intake minus total urine volume) ([3]; -24 h to pre-dose (baseline before dosing), 1000 mg period): -126 (798) mL
- Urinary chloride excretion ([4]; 20 mg single dose): 136 (56.6) mmol
- Urinary potassium excretion ([4]; 20 mg single dose): 66.6 (27.7) mmol
- Urinary sodium excretion ([4]; 20 mg single dose): 148 (64.0) mmol
- Urinary chloride excretion ([4]; 50 mg single dose, n = 7): 189 (51.4)^b mmol
- Urinary potassium excretion ([4]; 50 mg single dose, n = 7): 75.2 (21.3)^b mmol
- Urinary sodium excretion ([4]; 50 mg single dose, n = 7): 212 (67.6)^b mmol
- Urinary chloride excretion ([4]; 150 mg single dose, n = 7): 179 (49.6)^b mmol
- Urinary potassium excretion ([4]; 150 mg single dose, n = 7): 59.7 (20.3)^b mmol
- Urinary sodium excretion ([4]; 150 mg single dose, n = 7): 176 (38.7)^b mmol
- Urinary chloride excretion ([4]; 500 mg single dose): 126 (55) mmol
- Urinary potassium excretion ([4]; 500 mg single dose): 55.8 (17.2) mmol
- Urinary sodium excretion ([4]; 500 mg single dose): 143 (55.0) mmol
- Urinary chloride excretion ([4]; 1000 mg single dose): 201 (61.5) mmol
- Urinary potassium excretion ([4]; 1000 mg single dose): 89.1 (24.7) mmol
- Urinary sodium excretion ([4]; 1000 mg single dose): 207 (62.9) mmol
- Effect on clinical laboratory results, urine electrolytes, vital signs or ECGs ([4]; all subjects): no obvious patterns suggesting an effect
